These results are taken from paper PMC6154534, “New Benzimidazole-1,2,4-Triazole Hybrid Compounds: Synthesis, Anticandidal Activity and Cytotoxicity Evaluation” (Molecules : A Journal of Synthetic Chemistry and Natural …, 2017).

≈ marks a conversion by molar mass, not a printed value.

The subject of one series is Candida species. As to the kind of experiment: Anticandidal broth microdilution, results summarised over all strains. Format: cell-based. The settings on record: summary over all four Candida strains; for MIC50: Candida, read-out: MIC50 against Candida species. How it is done:
(§1) Synthesized compounds (5a-5ad) were evaluated for anticandidal activity against C. albicans (ATCC 24433), C. krusei (ATCC 6258), C. parapsilosis (ATCC 22019) and C. [NT] 90030). MIC50 values were evaluated via fluorometric measurements, using resazurin solution [56, 57]. […] [NT] 90030). MIC readings were carried out twice for each chemical agent. The yeasts were maintained in RPMI after overnight incubation at 37 °C. The inocula of test microorganisms adjusted to match the turbidity of a MacFarland 0.5 standard tube as determined with a spectrophotometer and the final inoculum size was 0.5-2.5 × 10^5 cfu/mL for antifungal assay. Testing was carried out in RPMI at pH = 7 and the two-fold serial dilutions technique was applied. The last well on the microplates containing only inoculated broth was kept as controls and the last well with no growth of microorganism was recorded to represent the MIC50 expressed in μg/mL. For the antifungal assays, the compounds were dissolved in DMSO. […] The completed plates were incubated for 24 h. At the end of the incubation, resazurin (20 μg/mL) was added into each well to control whether the growth in wells. Then, plates were allowed to incubate for 2 h. MIC50 values were determined using a microplate reader at […].
Background: In broth dilution the organism is exposed to a series of concentrations in liquid medium.

In a further series the test system is C. albicans (ATCC 24433). As to the kind of experiment: Anticandidal broth microdilution (EUCAST EDef 7.1), resazurin fluorometric readout. The format is cell-based. The settings on record: Candida albicans, ATCC24433; ATCC 24433, RPMI pH 7, 24 h incubation. The procedure: as §1
Another series relates to C. krusei (ATCC 6258). The series is described as above. The format is cell-based. To be noted: Pichia kudriavzevii, ATCC6258; ATCC 6258, RPMI pH 7, 24 h incubation. How it is done:
as §1

A further series concerns C. glabrata (ATCC 90030). The description is as above. Format: cell-based. The settings on record: Nakaseomyces glabratus, ATCC90030; ATCC 90030, RPMI pH 7, 24 h incubation. How it is done: as §1
Series [1] concerns C. parapsilosis (ATCC 22019). Described as above. The format is cell-based. To be noted: Lodderomyces parapsilosis, ATCC22019; ATCC 22019, RPMI pH 7, 24 h incubation; read-out: MIC50 C. parapsilopsis. How it is done: as §1

One may read the MIC50 as an inhibitory concentration at the 50% level, which refers to growth in some studies and to a panel of isolates in others. As a reminder, the melting point is the temperature of the solid-liquid transition. As to `Cn1c(SCC(=O)c2ccc(Cl)cc2Cl)nnc1-c1ccc(-c2nc3ccc(Cl)cc3[nH]2)cc1` [Compound 5n, 2-((5-(4-(6-Chloro-1H-Benzimidazol-2-yl)phenyl)-4-methyl-4H-1,2,4-triazol-3-yl)thio)-1-(2,4-dichlorophenyl)ethan-1-one], the melting point turned out to be 274.2 °C. The MIC50 with Candida species was in the range of 1.56 to 3.12 µg/mL (≈ 2.95 to 5.9 µM). In addition, in the series on C. albicans (ATCC 24433), the MIC50 was 1.56 µg/mL (≈ 2.95 µM). This compound also had an MIC50 against C. krusei (ATCC 6258) of 1.56 µg/mL (≈ 2.95 µM). In the series on C. glabrata (ATCC 90030), this compound gave an MIC50 of 3.12 µg/mL (≈ 5.9 µM). The MIC50 in series [1] was found to be 3.12 µg/mL (≈ 5.9 µM).

`CCn1c(SCC(=O)c2ccccc2)nnc1-c1ccc(-c2nc3ccc(Cl)cc3[nH]2)cc1` [Compound 5p, 2-((5-(4-(6-Chloro-1H-benzimidazol-2-yl)phenyl)-4-ethyl-4H-1,2,4-triazol-3-yl)thio)-1-phenylethan-1-one] gave a melting point of 248.5 °C. The “anticandidal activity against Candida strains (in words)” value (shortened to “anticandidal activity”) in the series with Candida species is “did not show strong activity”. The MIC50 against C. albicans (ATCC 24433) is 12.5 µg/mL (≈ 26.4 µM). Also, the MIC50 in the series with C. krusei (ATCC 6258) was 50 µg/mL (≈ 105 µM). For the same compound, the MIC50 in the series with C. glabrata (ATCC 90030) was 12.5 µg/mL (≈ 26.4 µM). For the same compound, in series [1], the MIC50 was 25 µg/mL (≈ 52.7 µM).

The compound `CCn1c(SCC(=O)c2ccc(Cl)cc2)nnc1-c1ccc(-c2nc3ccc(Cl)cc3[nH]2)cc1` [Compound 5q, 2-((5-(4-(6-Chloro-1H-benzimidazol-2-yl)phenyl)-4-ethyl-4H-1,2,4-triazol-3-yl)thio)-1-(4-chlorophenyl)ethan-1-one] showed a melting point of 252.2 °C. Moreover, the “anticandidal activity” value in the series on Candida species is listed as “did not show strong activity”. In addition, in the series on C. albicans (ATCC 24433), the MIC50 is 6.25 µg/mL (≈ 12.3 µM). In addition, the MIC50 in the series on C. krusei (ATCC 6258) was 12.5 µg/mL (≈ 24.6 µM). This compound displayed an MIC50 in the series with C. glabrata (ATCC 90030) of 12.5 µg/mL (≈ 24.6 µM). Besides, in series [1], the MIC50 came out at 12.5 µg/mL (≈ 24.6 µM).

Take `CCn1c(SCC(=O)c2ccc(Cl)cc2Cl)nnc1-c1ccc(-c2nc3ccc(Cl)cc3[nH]2)cc1` [Compound 5s, 2-((5-(4-(6-Chloro-1H-benzimidazol-2-yl)phenyl)-4-ethyl-4H-1,2,4-triazol-3-yl)thio)-1-(2,4-dichlorophenyl)ethan-1-one]: the melting point amounted to 192 °C. For the same compound, the MIC50 in the series on Candida species was 1.56 to 3.12 µg/mL (≈ 2.87 to 5.75 µM). This compound returned an MIC50 with C. albicans (ATCC 24433) of 1.56 µg/mL (≈ 2.87 µM). Besides, the MIC50 with C. krusei (ATCC 6258) worked out at 3.12 µg/mL (≈ 5.75 µM). In the series on C. glabrata (ATCC 90030), the MIC50 turned out to be 3.12 µg/mL (≈ 5.75 µM). Moreover, the MIC50 in series [1] was determined as 1.56 µg/mL (≈ 2.87 µM).

`CCn1c(SCC(=O)c2ccc(F)cc2F)nnc1-c1ccc(-c2nc3ccc(Cl)cc3[nH]2)cc1` [Compound 5t, 2-((5-(4-(6-Chloro-1H-benzimidazol-2-yl)phenyl)-4-ethyl-4H-1,2,4-triazol-3-yl)thio)-1-(2,4-difluorophenyl)ethan-1-one] displayed a melting point of 250.6 °C. Besides, the MIC50 in the series on Candida species was in the range of 0.78 to 1.56 µg/mL (≈ 1.53 to 3.06 µM). For the same compound, the MIC50 against C. albicans (ATCC 24433) was found to be 0.78 µg/mL (≈ 1.53 µM). This compound registered an MIC50 in the series on C. krusei (ATCC 6258) of 0.78 µg/mL (≈ 1.53 µM). The compound also returned an MIC50 with C. glabrata (ATCC 90030) of 1.56 µg/mL (≈ 3.06 µM). Besides, the MIC50 in series [1] worked out at 0.78 µg/mL (≈ 1.53 µM).

In turn, `Cn1c(SCC(=O)c2ccccc2)nnc1-c1ccc(-c2nc3ccc(F)cc3[nH]2)cc1` [Compound 5u, 2-((5-(4-(6-Fluoro-1H-benzimidazol-2-yl)phenyl)-4-methyl-4H-1,2,4-triazol-3-yl)thio)-1-phenylethan-1-one] displayed a melting point of 277.1 °C. In addition, in the series with Candida species, the “anticandidal activity” value was “did not show strong activity”. The same compound displayed an MIC50 in the series with C. albicans (ATCC 24433) of 12.5 µg/mL (≈ 28.2 µM). The MIC50 in the series with C. krusei (ATCC 6258) was determined as 50 µg/mL (≈ 113 µM). The same compound registered an MIC50 in the series on C. glabrata (ATCC 90030) of 25 µg/mL (≈ 56.4 µM). In series [1], the MIC50 came to 50 µg/mL (≈ 113 µM).

`Cn1c(SCC(=O)c2ccc(Cl)cc2)nnc1-c1ccc(-c2nc3ccc(F)cc3[nH]2)cc1` [Compound 5v, 1-(4-Chlorophenyl)-2-((5-(4-(6-fluoro-1H-benzimidazol-2-yl)phenyl)-4-methyl-4H-1,2,4-triazol-3-yl)thio)ethan-1-one] showed a melting point of 252.9 °C. Further, in the series on Candida species, the MIC50 was in the range of 1.56 to 3.12 µg/mL (≈ 3.26 to 6.53 µM) and the “anticandidal activity” value is reported as “did not show strong activity”. The compound also showed an MIC50 in the series on C. albicans (ATCC 24433) of 12.5 µg/mL (≈ 26.2 µM). The compound also yielded an MIC50 against C. krusei (ATCC 6258) of 12.5 µg/mL (≈ 26.2 µM). Also, the MIC50 in the series with C. glabrata (ATCC 90030) worked out at 6.25 µg/mL (≈ 13.1 µM). Besides, the MIC50 in series [1] was determined as 12.5 µg/mL (≈ 26.2 µM).
